US9505749B2, “Quinazolinone compounds and derivatives thereof” (AMGEN INC., priority 2012, dated 2016)
Where two headings read alike, the source gives them in different places.

Tests used:
[1] = target: 6×HIS-tankyrase1 (1091-1325) (Homo sapiens (Human), UniProt O95271); assay: Tankyrase 1 biochemical assay (AlphaLisa, PARsylation); settings: 400 nM NAD, 60 minutes at RT; read-out: TNKS1 IC50
[2] = target: 6×HIS-tankyrase 2 (946-1162) (Homo sapiens (Human), UniProt Q9H2K2); assay: Tankyrase 2 biochemical assay (AlphaLisa, PARsylation); settings: 250 nM NAD; read-out: TNKS2 IC50
[3] = system: Axin2 accumulation in SW480 cells; assay: Axin2 384 immunofluorescence assay; type: cell-based; settings: Homo sapiens, read-out: Axin2 384 IF EC50
[4] = target: PARP2 (Homo sapiens (Human), UniProt Q9UGN5); assay: PARP2 biochemical assay (BPS kit)
[5] = system: total β-catenin in SW480 colorectal cells; assay: Total β-catenin MSD 96-well plate assay for SW480 cells; settings: Homo sapiens, SW480, read-out: SW480-Total beta-catenin (TBC) IC50 IP
[6] = target: PARP1 (Homo sapiens (Human), UniProt P09874); assay: PARP1 biochemical assay (Trevigen kit)
From the text: PARP1 biochemical assay was purchased as a kit from Trevigen (cat.#4676-096-K) and used per manufacturers recommendations.

Chain of 6×HIS-tankyrase 2 (946-1162) (Q9H2K2 946-1162): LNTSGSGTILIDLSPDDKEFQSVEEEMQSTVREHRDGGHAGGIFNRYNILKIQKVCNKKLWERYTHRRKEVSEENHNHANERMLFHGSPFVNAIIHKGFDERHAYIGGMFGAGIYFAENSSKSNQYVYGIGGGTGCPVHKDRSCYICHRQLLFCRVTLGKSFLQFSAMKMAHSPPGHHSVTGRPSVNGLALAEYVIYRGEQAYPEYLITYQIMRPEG
Chain of PARP2 (Q9UGN5 whole entry): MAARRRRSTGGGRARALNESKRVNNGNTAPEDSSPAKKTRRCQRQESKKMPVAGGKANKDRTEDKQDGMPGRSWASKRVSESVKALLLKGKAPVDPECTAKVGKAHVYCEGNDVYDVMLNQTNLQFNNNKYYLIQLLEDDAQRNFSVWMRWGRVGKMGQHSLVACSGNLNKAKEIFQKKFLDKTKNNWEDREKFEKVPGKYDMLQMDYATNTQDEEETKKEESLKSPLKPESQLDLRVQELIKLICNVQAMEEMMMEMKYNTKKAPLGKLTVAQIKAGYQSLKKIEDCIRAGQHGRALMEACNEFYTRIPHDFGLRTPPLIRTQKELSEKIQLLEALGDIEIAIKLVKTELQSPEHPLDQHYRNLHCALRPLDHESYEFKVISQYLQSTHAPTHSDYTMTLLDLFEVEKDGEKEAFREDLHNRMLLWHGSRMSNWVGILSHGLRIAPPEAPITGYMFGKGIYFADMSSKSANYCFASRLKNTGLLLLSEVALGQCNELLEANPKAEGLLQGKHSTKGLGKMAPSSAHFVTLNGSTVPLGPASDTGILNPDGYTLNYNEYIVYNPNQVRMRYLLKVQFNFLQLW
Chain of PARP1 (P09874 whole entry): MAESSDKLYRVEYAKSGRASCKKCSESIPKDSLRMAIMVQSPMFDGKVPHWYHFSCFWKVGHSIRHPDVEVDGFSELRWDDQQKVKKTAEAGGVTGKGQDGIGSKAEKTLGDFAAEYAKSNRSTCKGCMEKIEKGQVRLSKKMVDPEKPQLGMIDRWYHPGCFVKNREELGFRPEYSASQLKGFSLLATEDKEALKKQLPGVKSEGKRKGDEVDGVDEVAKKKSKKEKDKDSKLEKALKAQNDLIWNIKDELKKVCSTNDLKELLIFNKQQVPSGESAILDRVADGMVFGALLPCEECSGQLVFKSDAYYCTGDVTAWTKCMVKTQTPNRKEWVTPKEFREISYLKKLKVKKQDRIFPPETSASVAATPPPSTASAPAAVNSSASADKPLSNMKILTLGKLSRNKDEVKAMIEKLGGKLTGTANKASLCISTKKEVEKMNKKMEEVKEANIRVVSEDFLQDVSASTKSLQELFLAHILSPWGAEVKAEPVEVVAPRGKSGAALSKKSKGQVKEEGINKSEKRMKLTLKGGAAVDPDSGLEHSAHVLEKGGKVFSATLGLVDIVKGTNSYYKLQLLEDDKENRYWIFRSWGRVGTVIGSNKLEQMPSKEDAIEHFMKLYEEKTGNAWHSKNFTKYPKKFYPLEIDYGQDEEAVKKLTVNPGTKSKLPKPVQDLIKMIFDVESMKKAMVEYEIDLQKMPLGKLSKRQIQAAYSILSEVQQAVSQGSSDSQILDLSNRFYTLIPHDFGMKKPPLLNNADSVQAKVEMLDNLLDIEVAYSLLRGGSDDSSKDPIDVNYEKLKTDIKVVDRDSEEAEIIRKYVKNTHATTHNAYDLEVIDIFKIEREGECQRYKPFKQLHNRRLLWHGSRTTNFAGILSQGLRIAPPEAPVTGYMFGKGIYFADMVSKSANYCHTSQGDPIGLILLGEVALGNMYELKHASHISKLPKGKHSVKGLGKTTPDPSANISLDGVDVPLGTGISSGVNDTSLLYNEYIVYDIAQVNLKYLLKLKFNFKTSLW
Chain of 6×HIS-tankyrase1 (1091-1325) (O95271 1091-1325): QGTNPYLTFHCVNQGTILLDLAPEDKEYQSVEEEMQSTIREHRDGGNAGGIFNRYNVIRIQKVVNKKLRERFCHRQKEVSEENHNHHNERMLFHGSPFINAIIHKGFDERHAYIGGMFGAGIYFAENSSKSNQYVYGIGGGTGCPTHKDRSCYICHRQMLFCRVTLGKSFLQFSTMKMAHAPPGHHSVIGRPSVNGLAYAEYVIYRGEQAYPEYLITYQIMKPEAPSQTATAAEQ

SMILES	IC50 [1] [nM]	IC50 [2] [nM]	EC50 ([3]; SW480 cells, 24 hours) [nM]	IC50 [4] [nM]	IC50 [5] [nM]	IC50 [6] [nM]	EC50 ([3]; SW480, 24 h) [nM]
O=C(CCc1nc2ccccc2c(=O)[nH]1)N[C@H]1CC[C@H](n2c(=O)[nH]c3ccc(Cl)cc32)CC1 [Example 86, N-((1r,4r)-4-(6-chloro-2-oxo-2,3-dihydro-1H-benzo[d]imidazol-1-yl)cyclohexyl)-3-(4-oxo-3,4-dihydroquinazolin-2-yl)propanamide]	1.01	0.347	207	279	32.6	–	–
O=C(CCc1nc2ccccc2c(=O)[nH]1)N[C@H]1CC[C@H](c2nnc(-c3ccc(F)cc3)o2)CC1 [Example 127, N-((1r,4r)-4-(5-(4-fluorophenyl)-1,3,4-oxadiazol-2-yl)cyclohexyl)-3-(4-oxo-3,4-dihydroquinazolin-2-yl)propanamide]	–	12.7	307	2310	157	1970	–
O=C(CCSc1nc2ccccc2c(=O)[nH]1)N[C@H]1CC[C@H](c2nnc(-c3cccc(F)c3)o2)CC1 [Example 119, N-((1r,4r)-4-(5-(3-fluorophenyl)-1,3,4-oxadiazol-2-yl)cyclohexyl)-3-((4-oxo-3,4-dihydroquinazolin-2-yl)thio)propanamide]	0.194	3.34	5.72	–	3	–	–
O=C(CC[S+]([O-])c1nc2ccccc2c(=O)[nH]1)N[C@H]1CC[C@H](c2nnc(-c3ccccc3)o2)CC1 (some centres unmarked) [Example 143, 3-((4-oxo-3,4-dihydroquinazolin-2-yl)sulfinyl)-N-((1r,4r)-4-(5-phenyl-1,3,4-oxadiazol-2-yl)cyclohexyl)propanamide]	17.9	52.3	970	–	929	–	–
O=C(CCc1nc2ccccc2c(=O)[nH]1)N[C@H]1CC[C@H](c2nnc(-c3cnccn3)o2)CC1 [Example 142, 3-(4-oxo-3,4-dihydroquinazolin-2-yl)-N-((1r,4r)-4-(5-(pyrazin-2-yl)-1,3,4-oxadiazol-2-yl)cyclohexyl)propanamide]	–	203	6490	1700	–	5470	–
O=C(CCSc1nc2ccccc2c(=O)[nH]1)N[C@H]1C[C@@H](c2nnc(-c3ccccc3)o2)C1 [Example 39, 3-((4-oxo-3,4-dihydroquinazolin-2-yl)thio)-N-((1s,3s)-3-(5-phenyl-1,3,4-oxadiazol-2-yl)cyclobutyl)propanamide]	0.405	0.389	–	1900	–	–	–
O=C(CCCc1nc2ccccc2c(=O)[nH]1)N1CCC(n2cc(-c3ccccc3)[nH]c2=O)CC1 [Example 49, 2-(4-oxo-4-(4-(2-oxo-4-phenyl-2,3-dihydro-1H-imidazol-1-yl)-1-piperidinyl)butyl)-4(3H)-quinazolinone trifluoroacetic acid]	118	–	–	–	530	–	5330
O=C(CCSc1nc2ccccc2c(=O)[nH]1)N[C@H]1CC[C@H](c2nnc(-c3ccc(Cl)cc3)o2)CC1 [Example 125, N-((1r,4r)-4-(5-(4-chlorophenyl)-1,3,4-oxadiazol-2-yl)cyclohexyl)-3-((4-oxo-3,4-dihydroquinazolin-2-yl)thio)propanamide]	1.52	0.179	1.68	–	1.93	–	–
O=C(CCc1nc2ccccc2c(=O)[nH]1)N[C@H]1CC[C@H](c2nnc(-c3ccccn3)o2)CC1 [Example 131, 3-(4-oxo-3,4-dihydroquinazolin-2-yl)-N-((1r,4r)-4-(5-(pyridin-2-yl)-1,3,4-oxadiazol-2-yl)cyclohexyl)propanamide]	–	187	12100	–	1770	5650	–
O=C(CCc1nc2ccccc2c(=O)[nH]1)N[C@H]1CC[C@H](c2nnc(-c3cccc(Cl)c3)o2)CC1 [Example 130, N-((1r,4r)-4-(5-(3-chlorophenyl)-1,3,4-oxadiazol-2-yl)cyclohexyl)-3-(4-oxo-3,4-dihydroquinazolin-2-yl)propanamide]	–	7.92	240	944	110	998	–
O=C(CCc1nc2ccccc2c(=O)[nH]1)N[C@H]1CC[C@H](c2nnc(-c3ccccc3Cl)o2)CC1 [Example 128, N-((1r,4r)-4-(5-(2-chlorophenyl)-1,3,4-oxadiazol-2-yl)cyclohexyl)-3-(4-oxo-3,4-dihydroquinazolin-2-yl)propanamide]	–	81.3	1750	276	592	3890	–
O=C(CCc1nc2ccccc2c(=O)[nH]1)N[C@H]1CC[C@H](c2nnc(Cc3ccccc3)o2)CC1 [Example 139, N-((1r,4r)-4-(5-benzyl-1,3,4-oxadiazol-2-yl)cyclohexyl)-3-(4-oxo-3,4-dihydroquinazolin-2-yl)propanamide]	–	624	> 25000	1130	–	8220	–
CC(C)(c1ccccc1)c1nnc([C@H]2CC[C@H](NC(=O)CCc3nc4ccccc4c(=O)[nH]3)CC2)o1 [Example 140, 3-(4-oxo-3,4-dihydroquinazolin-2-yl)-N-((1r,4r)-4-(5-(2-phenylpropan-2-yl)-1,3,4-oxadiazol-2-yl)cyclohexyl)propanamide]	1210	–	–	1290	–	7450	–
O=C(CCc1nc2ccccc2c(=O)[nH]1)N[C@H]1CC[C@H](c2nnc(-c3cccnc3)o2)CC1 [Example 136, 3-(4-oxo-3,4-dihydroquinazolin-2-yl)-N-((1r,4r)-4-(5-(pyridin-3-yl)-1,3,4-oxadiazol-2-yl)cyclohexyl)propanamide]	–	32.7	1190	1060	960	10800	–
O=C(CCSc1nc2ccccc2c(=O)[nH]1)N[C@H]1C[C@H](c2nnc(-c3ccccc3)o2)C1 [Example 40, 3-((4-oxo-3,4-dihydroquinazolin-2-yl)thio)-N-((1r,3r)-3-(5-phenyl-1,3,4-oxadiazol-2-yl)cyclobutyl)propanamide]	0.0891	–	–	3970	–	–	–
O=C(CCc1nc2ccc(F)cc2c(=O)[nH]1)N[C@H]1CC[C@H](c2nnc(-c3ccccc3)o2)CC1 [Example 101, 3-(6-fluoro-4-oxo-3,4-dihydroquinazolin-2-yl)-N-((1r,4r)-4-(5-phenyl-1,3,4-oxadiazol-2-yl)cyclohexyl)propanamide]	–	15.2	783	421	252	936	–
O=C(CCSc1nc2ccccc2c(=O)[nH]1)N[C@H]1CC[C@H](c2nnc(-c3ccc(F)cc3)o2)CC1 [Example 117, N-((1r,4r)-4-(5-(4-fluorophenyl)-1,3,4-oxadiazol-2-yl)cyclohexyl)-3-((4-oxo-3,4-dihydroquinazolin-2-yl)thio)propanamide]	0.269	3.98	2.78	–	1.23	–	–
O=C(CCc1nc2ccccc2c(=O)[nH]1)N[C@H]1CC[C@H](c2nnc(-c3cccc(F)c3)o2)CC1 [Example 129, N-((1r,4r)-4-(5-(3-fluorophenyl)-1,3,4-oxadiazol-2-yl)cyclohexyl)-3-(4-oxo-3,4-dihydroquinazolin-2-yl)propanamide]	–	12.8	435	1960	124	1090	–
